Assay results published in patent USRE30548E, “Peptides which effect release of hormones” (The Salk Institute for Biological Studies, priority 1979, dated 1981).
Bridge positions count the residues as written; N and C are the ends. Ends that are not written are not given here.

Columns and labels:
insulin secretion = experiment: In vivo bioassay: inhibition of insulin release in anesthetized rats (portal vein plasma); parameters: species or system Sprague-Dawley-CD rats; conditions: in vivo rat, via external jugular vein; somatostatin = 100
Method: (§1) An investigation of the effect of somatostatin, dihydrosomatostatin, (as controls) and the peptides of the invention to inhibit the release of glucagon and insulin was made as follows:
(§2) In vivo Bioassay: Male Sprague-Dawley-CD rats weighing 180-200 g housed in temperature and humidity controlled quarters with 14h light and 10h dark (light 0700-[…]) were used in all experiments. Animals were fed a standard ration and tap water ad libitum. Experiments were carried out at least 5 days after arrival of rats from the supplier between the hours 1400 to 1600. After ether anesthesia, peptides or saline were administered in a volume of 0.2 ml. via the external jugular vein. Animals remained anesthetized until the time of blood collection from the portal vein. […]
(§3) Plasma was stored at -20° C. for insulin and glucagon determinations. Insulin levels were determined by the method of Herbert et al, J. […]. Endocr. […] Glucagon was determined by the method of Faloona and Unger, in Jaffe et al ed., Methods of Hormone Radioimmunoassay, Academic Press, New York, 1974, p. […] was determined by the glucose oxidase method, utilizing a Beckman Glucose Analyzer.
(§4) All experiments were carried on in a randomized block design. Following analysis of variance difference between treatments were determined by the multiple range tests of Dunnett and Duncan. Potency values were calculated from four or six point bioassays.

glucagon secretion = experiment: In vivo bioassay: inhibition of glucagon release in anesthetized rats (portal vein plasma); parameters: species or system Sprague-Dawley-CD rats; conditions: in vivo rat, via external jugular vein; somatostatin = 100
Method: as §1, §2, §3, §4

Substance: somatostatin (AGCKNFFWKTFTSC; disulfide 3-14; ends not checked; UniProt P61278 103-116, looked up)
- percent effectiveness for inhibiting secretion of Insulin, somatostatin taken as the base (insulin secretion): 100%
- percent effectiveness for inhibiting secretion of Glucagon, somatostatin taken as the base (glucagon secretion): 100%
